From patent US20040157793A1, “Modified nucleosides as antiviral agents” (priority 2002, published 2004)
Like-named read-outs stand apart in the source and are kept apart here.

Assays:
[1] = test system: HBV (wild-type virus: rtM204) in HepAD38 cells; experiment: Suppression of HBV production in HepAD38 cells, viral DNA in supernatant by Q-PCR; assay type: cell-based; conditions: HepAD38 cells, 5-day incubation
Text: The HepAD38 (wild-type virus: rtM204) and HepAD79 (3TC-resistant virus: rtV204) (Stuyver L. J. et al. 2001, Hepatol., 33:751-757) cell lines replicate HBV under conditions that can be regulated with tetracycline (King R. W. et al. 2000, Methods in Molecular Medicine, Vol 24: Antiviral Methods and Protocols, 43-50 (eds: D. Kinchington & R. F. Schinazi), Humana Press Inc, Totowa, N.J.); Ladner, et al. 1997, Antimicrob. Agents Chemother., 41:1715-1720; Ladner S. K., et al. 1998a. Antivir. Chem. Chemother., 9:65-72; Ladner S. K., et al. 1998b. Antimicrob. Agents Chemother., 42:2128-31). In the presence of this drug, the cell supernatant is virtually free of viral DNA, but upon the removal of tetracycline from the culture medium, these cells secrete virus-like particle into the supernatant.
(§1) HepAD38 and HepAD79 cells were seeded at 5×10^4 cells/well in a 96-well plate in seeding medium (DMEM/F12+10% FBS, 50 μg/ml penicillin, 50 μg/ml streptomycin, 100 μg/ml kanamycin, 400 μg/ml G418, and 0.3 μg/ml tetracycline) and incubated for 2 days at 37° C. in a 5% CO2, humidified atmosphere. The seeding media was removed, and cells were washed 3 times with PBS. Cells were then incubated with 200 μL assay medium (DMEM/F12+10% FBS+P/S/K) containing either (i) no compound, (ii) test compound, or (iii) control drugs at 10 μM. After an additional 5-day (HepAD38) or 13-day incubation (HepAD79, with renewal of the culture media at day 7), the cell supernatant was collected and stored at −70° C. until HBV DNA was quantified.
HBV DNA was extracted from supernatant using QiaAmp DNA blood Mini kit (Qiagen) and nucleic acids eluted in 200 μl Viral DNA was detected by quantitative PCR (Q-PCR). The TaqMan probe and primers were designed using the Primer Express software (Applied Biosystems) and cover highly conserved sequences complementary to the DNA sequences present in HBsAg. A total of 5 μl DNA was amplified using reagents and conditions as described by the manufacturer (Applied Biosystems). […]

[2] = test system: HBV (3TC-resistant virus: rtV204) in HepAD79 cells; experiment: microbe, parasite or virus in culture; assay type: cell-based
Method: as §1
HBV DNA was extracted from supernatant using QiaAmp DNA blood Mini kit (Qiagen) and nucleic acids eluted in 200 μl Viral DNA was detected by quantitative PCR (Q-PCR). The TaqMan probe and primers were designed using the Primer Express software (Applied Biosystems) and cover highly conserved sequences complementary to the DNA sequences present in HBsAg. A total of 5 μl DNA was amplified using reagents and conditions as described by the manufacturer (Applied Biosystems).
Subsequently, the time course of viral induction in HepAD79 cells over a 13-day incubation period was investigated.
Therefore, the DNA extracted from the cell supernatant was also amplified by Q-PCR for the presence of cellular DNA (the rRNA gene).

HepG2 cells = experiment: Cell growth of HepG2 cells during 14-day treatment; assay type: cell-based, human; conditions: HepG2, up to 100 μM, 14 days
Method: In addition, these compounds were also tested in the HepG2 cell line (14-day treatment, 100 μM) for their ability to reduce mitochondrial DNA levels (using a newly designed normalized Q-PCR protocol as described in Stuyver, L. J., et al. 2002, Antimicrob. Agents Chemother., 46:3854-3860) or lactic acid production.

[3] = test system: HepG2 cells (mitochondrial COXII DNA); conditions: for Average ΔCt ± s.d. MitCoxII / Average ΔCt ± s.d. rDNA / Average ΔΔCt ± s.d. MitCOXII-rDNA / Fold difference in COXII DNA levels normalized for rDNA (range) relative to control: HepG2, 14-day treatment
M522V virus (rtV204 HBV) = conditions: Ono S. K. et al.; cited from earlier work

## Nc1nc(=O)n([C@@H]2C=C[C@H](CO)O2)cc1F [L-d4FC]
[1]; 10 μM, HBV DNA in supernatant
  HepAD38 log10 inhibition at 10 μM: 2.56 ± 0.44 log10
[1]; concentration reducing viral load by 90%, unit printed in text only, read-out: HepAD38 EC90
  EC90: 50 ± 20 nM
[2]; HepAD79 cells, 10 μM, 13-day incubation, HBV DNA in supernatant
  HepAD79 log10 inhibition at 10 μM: 1.64 ± 0.37 log10
[2]; HepAD79 cells, 13-day incubation, read-out: HepAD79 EC90
  EC90: 880 nM
[2]; fold increase, EC90 HepAD79 over EC90 HepAD38
  FI EC90 AD79/EC90 AD38: 17.6
HepG2 cells
  effect on cell growth (in words): reduced the cell growth significantly
[3]; 10 μM
  Average ΔCt ± s.d. MitCoxII: 2.72 ± 0.27
  Average ΔCt ± s.d. rDNA: 3.89 ± 0.23
  Average ΔΔCt ± s.d. MitCOXII-rDNA: −1.17 ± 0.47
  Fold difference in COXII DNA levels normalized for rDNA (range) relative to control: 2.25 (1.62-3.12)
[3]; 100 μM
  Average ΔCt ± s.d. MitCoxII: 6.52 ± 0.14
  Average ΔCt ± s.d. rDNA: 8.76 ± 0.47
  Average ΔΔCt ± s.d. MitCOXII-rDNA: 2.24 ± 0.58
  Fold difference in COXII DNA levels normalized for rDNA (range) relative to control: 4.72 (3.16-7.04)
[3]; HepG2, up to 100 μM, 14 days
  effect on mitochondrial DNA levels (in words): did not specifically affect the mitochondrial DNA levels
M522V virus (rtV204 HBV)
  EC50: 1800 nM
